Test results taken from the OligoGym collection.
HELM strings list units from the 5' end as sugar, base in round brackets, then linkage (d deoxyribose, r ribose, m 2'-O-methyl, p phosphodiester). Strings are as the collection lists them; they lack the last nucleoside at the 3' end of the tested compound. [moe] = 2'-O-(2-methoxyethyl) (MOE); [sp] = phosphorothioate linkage; [m5C] = 5-methylcytosine

Molecular target: UBE3A-ATS
Assay: mouse, dose not given
Conditions: ASO

Row | Substance | 3 h FOB score
1 | RNA1{[moe](G)[sp].[moe](G)p.[moe](T)p.[moe]([m5C])p.[moe]([m5C])p.d(A)[sp].d(T)[sp].d(A)[sp].d(G)[sp].d(A)[sp].d(T)[sp].d(G)[sp].d(T)[sp].d([m5C])[sp].d(A)[sp].[moe](G)p.[moe](T)p.[moe](T)[sp].[moe](A)}$$$$ (last 3' nucleoside missing) | 5.5 score 0-7
2 | RNA1{[moe](T)[sp].[moe](T)p.[moe](A)p.[moe](G)p.[moe](G)p.d([m5C])[sp].d(A)[sp].d(A)[sp].d(T)[sp].d(G)[sp].d(G)[sp].d(A)[sp].d([m5C])[sp].d(T)[sp].d(T)[sp].[moe](A)p.[moe](G)p.[moe](T)[sp].[moe](A)}$$$$ (last 3' nucleoside missing) | 1 score 0-7
3 | RNA1{[moe](G)[sp].[moe](A)p.[moe](T)p.[moe]([m5C])p.[moe](A)p.[moe]([m5C])p.d(A)[sp].d(T)[sp].d(T)[sp].d(A)[sp].d([m5C])[sp].d([m5C])[sp].d([m5C])[sp].d(A)[sp].d(T)[sp].d([m5C])[sp].[moe]([m5C])p.[moe](G)[sp].[moe](T)}$$$$ (last 3' nucleoside missing) | 0 score 0-7
4 | RNA1{[moe](T)[sp].[moe]([m5C])p.[moe](T)p.[moe]([m5C])p.[moe]([m5C])p.d(A)[sp].d(G)[sp].d(T)[sp].d(T)[sp].d(T)[sp].d(T)[sp].d([m5C])[sp].d(G)[sp].d([m5C])[sp].d([m5C])[sp].[moe]([m5C])p.[moe](G)p.[moe](T)[sp].[moe](T)}$$$$ (last 3' nucleoside missing) | 4.7 score 0-7
5 | RNA1{[moe]([m5C])[sp].[moe](G)p.[moe]([m5C])p.[moe](A)p.[moe](A)[sp].d(T)[sp].d(G)[sp].d(T)[sp].d(A)[sp].d(T)[sp].d([m5C])[sp].d(A)[sp].d(G)[sp].[moe](G)p.[moe]([m5C])p.[moe](A)[sp].[moe](A)}$$$$ (last 3' nucleoside missing) | 2 score 0-7
6 | RNA1{[moe]([m5C])[sp].[moe](T)p.[moe](G)p.[moe](T)p.[moe](A)p.d(A)[sp].d(G)[sp].d(G)[sp].d(T)[sp].d(G)[sp].d(A)[sp].d(T)[sp].d(A)[sp].d(T)[sp].d([m5C])[sp].[moe](T)p.[moe](A)p.[moe](T)[sp].[moe](A)}$$$$ (last 3' nucleoside missing) | 3 score 0-7
7 | RNA1{[moe](T)[sp].[moe]([m5C])p.[moe](A)p.[moe](T)p.[moe]([m5C])p.d(T)[sp].d([m5C])[sp].d(G)[sp].d(G)[sp].d(G)[sp].d(T)[sp].d(A)[sp].d(T)[sp].d(A)[sp].d(T)[sp].[moe](A)p.[moe](A)p.[moe](A)[sp].[moe](T)}$$$$ (last 3' nucleoside missing) | 3.3 score 0-7
8 | RNA1{[moe]([m5C])[sp].[moe]([m5C])p.[moe](A)p.[moe]([m5C])p.[moe](A)p.d([m5C])[sp].d(A)[sp].d(T)[sp].d(A)[sp].d(T)[sp].d(A)[sp].d(G)[sp].d(G)[sp].d([m5C])[sp].d(T)[sp].[moe](A)p.[moe](G)p.[moe]([m5C])[sp].[moe]([m5C])}$$$$ (last 3' nucleoside missing) | 1 score 0-7
9 | RNA1{[moe](G)[sp].[moe](T)p.[moe](G)p.[moe]([m5C])p.[moe](A)p.[moe](T)p.d(A)[sp].d([m5C])[sp].d([m5C])[sp].d([m5C])[sp].d(A)[sp].d(G)[sp].d(G)[sp].d(G)[sp].d(T)[sp].d(A)[sp].[moe](G)p.[moe](G)[sp].[moe](A)}$$$$ (last 3' nucleoside missing) | 1 score 0-7
10 | RNA1{[moe](G)[sp].[moe](G)p.[moe](A)p.[moe](T)p.[moe](G)p.d(G)[sp].d(T)[sp].d(G)[sp].d(T)[sp].d(G)[sp].d(T)[sp].d(A)[sp].d(T)[sp].d(G)[sp].d(T)[sp].[moe](T)p.[moe](A)p.[moe](T)[sp].[moe](G)}$$$$ (last 3' nucleoside missing) | 4.7 score 0-7
11 | RNA1{[moe](A)[sp].[moe](A)[sp].[moe](G)[sp].[moe](G)[sp].[moe](G)[sp].d(T)[sp].d(A)[sp].d(A)[sp].d(T)[sp].d(A)[sp].d([m5C])[sp].d(G)[sp].d(G)[sp].d(A)[sp].d([m5C])[sp].[moe]([m5C])[sp].[moe](T)[sp].[moe]([m5C])[sp].[moe](A)}$$$$ (last 3' nucleoside missing) | 6.5 score 0-7
12 | RNA1{[moe]([m5C])[sp].[moe](T)p.[moe]([m5C])p.[moe](A)[sp].d(G)[sp].d(T)[sp].d(T)[sp].d(A)[sp].d(G)[sp].d(G)[sp].d(T)[sp].d(T)[sp].[moe](A)p.[moe](G)p.[moe](T)p.[moe](G)[sp].[moe]([m5C])}$$$$ (last 3' nucleoside missing) | 5.3 score 0-7
13 | RNA1{[moe]([m5C])[sp].[moe](T)p.[moe](G)p.[moe]([m5C])p.d(T)[sp].d([m5C])[sp].d(A)[sp].d(G)[sp].d(T)[sp].d(T)[sp].d(A)[sp].d(G)[sp].d(G)[sp].d(T)[sp].[moe](T)p.[moe](A)p.[moe](G)p.[moe](T)[sp].[moe](G)}$$$$ (last 3' nucleoside missing) | 4 score 0-7
14 | RNA1{[moe]([m5C])[sp].[moe](G)p.[moe](G)p.[moe](G)p.[moe]([m5C])p.d(T)[sp].d(A)[sp].d(T)[sp].d(G)[sp].d(T)[sp].d(G)[sp].d(A)[sp].d(G)[sp].d(A)[sp].d(T)[sp].[moe](A)p.[moe](A)p.[moe](T)[sp].[moe](T)}$$$$ (last 3' nucleoside missing) | 4 score 0-7
15 | RNA1{[moe](T)[sp].[moe](G)p.[moe]([m5C])p.[moe](T)p.[moe](T)p.d([m5C])[sp].d(A)[sp].d([m5C])[sp].d([m5C])[sp].d(A)[sp].d(T)[sp].d(T)[sp].d(T)[sp].d(T)[sp].d(G)[sp].[moe](A)p.[moe]([m5C])p.[moe]([m5C])[sp].[moe](T)}$$$$ (last 3' nucleoside missing) | 1 score 0-7
16 | RNA1{[moe](T)[sp].[moe](G)p.[moe]([m5C])p.[moe](T)p.[moe](G)p.d(A)[sp].d(T)[sp].d([m5C])[sp].d(A)[sp].d([m5C])[sp].d(A)[sp].d(T)[sp].d(T)[sp].d(A)[sp].d([m5C])[sp].[moe]([m5C])p.[moe]([m5C])p.[moe](A)[sp].[moe](T)}$$$$ (last 3' nucleoside missing) | 0 score 0-7
17 | RNA1{[moe](T)[sp].[moe](G)p.[moe]([m5C])p.[moe](A)p.[moe](T)p.[moe](A)[sp].d([m5C])[sp].d([m5C])[sp].d([m5C])[sp].d(A)[sp].d(G)[sp].d(G)[sp].d(G)[sp].d(T)[sp].[moe](A)p.[moe](G)[sp].[moe](G)}$$$$ (last 3' nucleoside missing) | 2 score 0-7
18 | RNA1{[moe](T)[sp].[moe](T)p.[moe](T)p.[moe]([m5C])p.[moe](A)p.d(T)[sp].d([m5C])[sp].d(A)[sp].d(G)[sp].d(T)[sp].d(T)[sp].d(A)[sp].d(G)[sp].d(T)[sp].d([m5C])[sp].[moe](A)p.[moe](G)p.[moe](G)[sp].[moe](T)}$$$$ (last 3' nucleoside missing) | 2 score 0-7
19 | RNA1{[moe](T)[sp].[moe](T)p.[moe](A)p.[moe](A)p.[moe]([m5C])p.d(T)[sp].d(G)[sp].d([m5C])[sp].d(T)[sp].d(T)[sp].d([m5C])[sp].d(A)[sp].d([m5C])[sp].d([m5C])[sp].d(A)[sp].[moe](T)p.[moe](T)p.[moe](T)[sp].[moe](T)}$$$$ (last 3' nucleoside missing) | 1 score 0-7
20 | RNA1{[moe](T)[sp].[moe](T)p.[moe](A)p.[moe](G)p.[moe](G)p.[moe](T)p.d([m5C])[sp].d(A)[sp].d(A)[sp].d([m5C])[sp].d([m5C])[sp].d(A)[sp].d(A)[sp].d(T)[sp].d(T)[sp].d(T)[sp].[moe](G)p.[moe]([m5C])[sp].[moe](T)}$$$$ (last 3' nucleoside missing) | 0 score 0-7
21 | RNA1{[moe](G)[sp].[moe](G)p.[moe](G)p.[moe](A)p.[moe](G)p.d(G)[sp].d(A)[sp].d(G)[sp].d(T)[sp].d([m5C])[sp].d([m5C])[sp].d([m5C])[sp].d([m5C])[sp].d(A)[sp].d(G)[sp].[moe](A)p.[moe](T)p.[moe](A)[sp].[moe](A)}$$$$ (last 3' nucleoside missing) | 1.2 score 0-7
22 | RNA1{[moe](T)[sp].[moe](T)p.[moe](A)p.[moe](G)p.d(G)[sp].d(T)[sp].d([m5C])[sp].d(A)[sp].d(A)[sp].d([m5C])[sp].d([m5C])[sp].d(A)[sp].d(A)[sp].d(T)[sp].[moe](T)p.[moe](T)p.[moe](G)p.[moe]([m5C])[sp].[moe](T)}$$$$ (last 3' nucleoside missing) | 0 score 0-7
23 | RNA1{[moe](T)[sp].[moe]([m5C])p.[moe](T)p.[moe](G)p.[moe]([m5C])p.[moe](T)p.d([m5C])[sp].d(A)[sp].d(G)[sp].d(T)[sp].d(T)[sp].d(A)[sp].d(G)[sp].d(G)[sp].d(T)[sp].d(T)[sp].[moe](A)p.[moe](G)[sp].[moe](T)}$$$$ (last 3' nucleoside missing) | 4 score 0-7
24 | RNA1{[moe](A)[sp].[moe](G)p.[moe]([m5C])p.[moe]([m5C])p.[moe](A)p.[moe](G)p.d(G)[sp].d(T)[sp].d(G)[sp].d(T)[sp].d([m5C])[sp].d(T)[sp].d(T)[sp].d(A)[sp].d(T)[sp].d(A)[sp].[moe](T)p.[moe]([m5C])[sp].[moe](T)}$$$$ (last 3' nucleoside missing) | 0 score 0-7
25 | RNA1{[moe](A)[sp].[moe](G)p.[moe](G)p.[moe](T)p.[moe]([m5C])p.d(A)[sp].d(A)[sp].d([m5C])[sp].d([m5C])[sp].d(A)[sp].d(A)[sp].d(T)[sp].d(T)[sp].d(T)[sp].d(G)[sp].[moe]([m5C])p.[moe](T)p.[moe](A)[sp].[moe](T)}$$$$ (last 3' nucleoside missing) | 5.3 score 0-7
26 | RNA1{[moe]([m5C])[sp].[moe](A)p.[moe](G)p.[moe](T)p.[moe](T)p.d(G)[sp].d(T)[sp].d(G)[sp].d(T)[sp].d(A)[sp].d(T)[sp].d(T)[sp].d(G)[sp].d(A)[sp].d([m5C])[sp].[moe](T)p.[moe](A)p.[moe](A)[sp].[moe](G)}$$$$ (last 3' nucleoside missing) | 4.8 score 0-7
